Measurements: patent US20110105515A1, “TARGETING THE ONCOPROTEIN NUCLEOPHOSMIN” (President and Fellows of Harvard College, priority 2007, published 2011)
Entries after “also recorded” stand apart in the source; their conditions may differ.

Tests used:
nucleophosmin [1] = target: T1, nucleophosmin (Homo sapiens, UniProt P06748); assay: Competitive binding affinity-isolation with probe 5 in T-47D lysates, nucleophosmin; conditions: for inhibition of binding of nucleophosmin to probe 5 by analogues (FIG. 4): T-47D nuclear-enriched lysate
T-47D cells = assay: Antiproliferative assay (CellTiter-Blue), T-47D cells; assay type: cell-based, human; conditions: 72-h incubation
Description: G. Antiproliferative Assays. […] The cell suspension was diluted to 1.0×10^5 cells/mL. A multichannel pipette was used to load the wells of a 96-well plate with 100 μL per well of the diluted cell suspension. […] The following day, 100-μg portions of the nitrone samples were removed from the freezer, thawed, and dissolved in filter-sterilized DMSO to a concentration of 5 mM. A 6.5-μL aliquot of the nitrone solution was dissolved in 643.5 μL of medium to achieve a working concentration of 50 μM. Serial dilutions were employed to generate a range of different concentrations for analysis. Finally, 100-μL aliquots of this diluted nitrone solution were added to the wells containing adhered cells, resulting in final assay concentrations of up to 25 μM. The treated cells were incubated for 72 h at 37° C. (5% CO2). To each well was added 20 μL of CellTiter-Blue reagent, and the samples were returned to the incubator. Fluorescence (560 nm excitation/590 nm emission) was recorded on a 96-well plate reader following a 4.0-h incubation period (37° C., 5% CO2). Percent growth inhibition was calculated for each well, based upon the following formula: Percent growth inhibition=100×(S−B0)/(Bt−B0); where S is the sample reading, Bt is the average reading for a vehicle-treated population of cells at the completion of the assay, and B0 is the average reading for an untreated population of cells at the beginning of the assay. Each analogue was run a minimum of eight times, over a period of at least two weeks. For each compound, 14 separate concentrations were used in the assay, ranging from 25 μM to 8 nM. The average inhibition at each concentration was plotted against concentration, and a curve fit was generated. […] Final GI50 values reflect the concentrations at which the resulting curves pass through 50 percent inhibition.
The cell suspension was diluted to 1.0×10^5 cells/mL. A multichannel pipette was used to charge the wells of a 96-well plate with 100 μL per well of the diluted cell suspension.
The following day, a 6.5-μL aliquot of nitrone solution, at 5 mM in DMSO, was diluted in 643.5 μL of medium to achieve a working concentration of 50 μM. Serial dilutions were employed to generate a range of different concentrations for analysis. Finally, 100-μL aliquots of the diluted nitrone solutions were added to the wells containing adhered cells, resulting in final assay concentrations of up to 25 μM.
The treated cells were incubated for 72 h at 37° C. (5% CO2). To each well was added 20 μL of CellTiter-Blue reagent, and the samples were returned to the incubator. Fluorescence (560 nm excitation/590 nm emission) was recorded on a 96-well plate reader following a 4.0 h incubation period (37° C., 5% CO2).
Percent growth inhibition was calculated for each well, based upon the following formula:
Percent growth inhibition=100×(S−B0)/(Bt−B0)
where S is the sample reading, Bt is the average reading for a vehicle-treated population of cells at the completion of the assay, and B0 is the average reading for an untreated population of cells at the beginning of the assay.

proteins of T-47D cells = assay: Affinity-isolation from T-47D cells, LC-MS/MS analysis of proteins; conditions: narrower region of the gel; equal concentrations
LNCaP cells = assay: Antiproliferative assay (CellTiter-Blue), LNCaP cells; assay type: cell-based, human; conditions: 72-h incubation
Description: G. Antiproliferative Assays. […] The cell suspension was diluted to 1.0×10^5 cells/mL. A multichannel pipette was used to load the wells of a 96-well plate with 100 μL per well of the diluted cell suspension. […] The following day, 100-μg portions of the nitrone samples were removed from the freezer, thawed, and dissolved in filter-sterilized DMSO to a concentration of 5 mM. A 6.5-μL aliquot of the nitrone solution was dissolved in 643.5 μL of medium to achieve a working concentration of 50 μM. Serial dilutions were employed to generate a range of different concentrations for analysis. […] Fluorescence (560 nm excitation/590 nm emission) was recorded on a 96-well plate reader following a 4.0-h incubation period (37° C., 5% CO2). Percent growth inhibition was calculated for each well, based upon the following formula: Percent growth inhibition=100×(S−B0)/(Bt−B0); where S is the sample reading, Bt is the average reading for a vehicle-treated population of cells at the completion of the assay, and B0 is the average reading for an untreated population of cells at the beginning of the assay. […]
The treated cells were incubated for 72 h at 37° C. […] Fluorescence (560 nm excitation/590 nm emission) was recorded on a 96-well plate reader following a 4.0 h incubation period (37° C., 5% CO2).
Percent growth inhibition was calculated for each well, based upon the following formula: […]

nucleophosmin [2] = target: T1, nucleophosmin; assay: Titration of probe 5-nucleophosmin binding in T-47D whole cell lysate; design: endogenous in cells; host or cells: T-47D (live cells, whole-cell lysate, nuclear-enriched lysate); conditions: whole-cell lysates of T-47D cells
Description: (§1) The supernatant was discarded.
A 1-mL aliquot of T-47D whole cell lysate was thawed at 4° C. and diluted with 4 mL wash buffer, to afford a working lysate of 1.5 mg/mL total protein.

nucleophosmin [3] = target: T1, nucleophosmin; assay: Affinity-isolation from incubations with live T-47D cells, Western-blot detection of nucleophosmin; assay type: binding; design: endogenous in cells; host or cells: T-47D (live cells, whole-cell lysate, nuclear-enriched lysate); conditions: 3 μM 5 versus 9 μM 3, 90 min
Description: To identify potential binding proteins, populations of healthy (adherent) T-47D cells were treated with the newly synthesized biotin conjugate 5 or the structurally simpler biotin-containing probe 3, previously studied. As a control, a separate population of cells was treated with the biotin derivative 7, which lacks the unsaturated nitrone function. The treated cells were incubated with probe or control for 90 min at 37° C., then were harvested, washed and lysed. The individual lysates were exposed to an agarose resin to remove nonspecific binding proteins. After centrifugation, the supernatants were then exposed to a streptavidin-agarose resin. This resin was collected by centrifugation and washed. Bound proteins were released by heat-denaturation, separated by SDS-PAGE, and analyzed by LC-MS/MS and Western-blot.
The lysates were transferred to fresh 1.7-mL centrifuge tubes. Each individual sample lysate was treated with 50 μL of washed, well-suspended, two-fold diluted Sepharose resin. […] The supernatant was transferred to a clean 1.7-mL centrifuge tube.
as §1

[4] = target: NPM1.3 (nucleophosmin isoform) (Homo sapiens, UniProt P06748, C275A); assay: Affinity-isolation of NPM1.3 cysteine to alanine mutants expressed in COS-7 cells with probe 5; conditions: 1 μM probe 5, COS-7 cell lysates
[5] = system: NPM1.3 (nucleophosmin isoform); assay: as above; conditions: 1 μM probe 5, COS-7 cell lysates
[6] = system: MALME-3M and MALME-3 cells; assay: Selectivity assay, malignant melanoma MALME-3M versus fibroblast MALME-3; assay type: cell-based; conditions: MALME-3M versus MALME-3
Description: […]. A cell line from a healthy fibroblast from the same patient has also been deposited with the American Type Cell Culture Corporation (ATCC). Fresh stockes of both MALME-3M and MALME-3 from ATCC. Avrainvillamide was test against the two cells lines at the same time, taking all possible precautions to ensure that both sets of samples were treated identically. […] As a measure of cytotoxicity and antiproliferative activity, we calculated both LC50 and LC25 (as an estimate of GI50).
The 9.7-fold selectivity at 25 percent cell death is representative of at least a modest degree of selectivity. For comparison, cytochalsine B and geldanamycin were analyzed in identical experiments. Cytochalasine B is a non-selective cytotoxic agent for which a selectivity factor of 0.2 at 25 percent cell death was observed. Geldanamycin is known to be a potent, selective inhibitor of tumor cell growth for which a selectivity factor of >100 at 25 percent cell death was observed.

peroxiredoxin 1 (PRX1) = target: T2, peroxiredoxin 1 (PRX1) (Homo sapiens, UniProt Q06830); assay: Competitive binding affinity-isolation with probe 5 in T-47D lysates, peroxiredoxin 1; conditions: 10 μM probe 5, 100 μM inhibitor
T2 construct: endogenous in cells; host or cells: T-47D lysate
Source text: as §1
(§2) See above for solution preparation.

exportin-1 (XPO1) = target: T3, exportin-1 (XPO1) (Homo sapiens, UniProt O14980); assay: Competitive binding affinity-isolation with probe 5 in T-47D lysates, exportin-1; conditions: 10 μM probe 5, 100 μM inhibitor
T3 construct: endogenous in cells; host or cells: T-47D lysate
Source text: as §1, §2

nucleophosmin [7] = target: T1, nucleophosmin; assay: Affinity-isolation following co-incubation with iodoacetamide; assay type: binding; design: endogenous in cells; host or cells: T-47D (live cells, whole-cell lysate, nuclear-enriched lysate); conditions: 10 μM probe 5, 10 mM iodoacetamide; whole cell lysate
Description: Identical affinity-isolation experiments to those described in the previous section were performed, except that iodoacetamide (8 μL of a freshly prepared 500 mM solution in DMSO) was added to one sample: […]

CC1(C)C2=[N+]([O-])c3cc(-c4ccccc4)ccc3C2=C[C@@]23NC(=O)C4(CCCN4C2=O)CC13 (some centres unmarked) [compound 8]
inhibition of binding of nucleophosmin to probe 5 by analogues (FIG. 4) (nucleophosmin [1]): inhibited essentially equivalently | inhibition of the growth of T-47D cells (antiproliferative potency, in words) (T-47D cells): nearly as potent as avrainvillamide

CC1(C)C2=[N+]([O-])c3c(cccc3-c3ccccc3)C2=C[C@@]23NC(=O)C4(CCCN4C2=O)CC13 (some centres unmarked) [compound 11]
inhibition of binding of nucleophosmin to probe 5 by analogues (FIG. 4) (nucleophosmin [1]): least effectively inhibited

CC1(C/C=C/CCCCCCCCOC(=O)CCCC[C@@H]2SC[C@@H]3NC(=O)N[C@@H]32)C=Cc2c(ccc3c2[N+]([O-])=C2C3=C[C@@]34NC(=O)C5(CCCN5C3=O)CC4C2(C)C)O1 (some centres unmarked) [compound 5]
detection of nucleophosmin by LC-MS/MS after affinity isolation (proteins of T-47D cells): detected | inhibition of the growth of LNCaP cells (antiproliferative potency, in words) (LNCaP cells): somewhat less potent than the dansyl conjugate (4) | concentration of probe sufficient to afford detectable levels of nucleophosmin (nucleophosmin [2]): 100 to 500 nM | affinity-isolation of nucleophosmin by biotinylated probe (Western-blot) (nucleophosmin [3]): more effectively bound nucleophosmin; also recorded: selectively bind | inhibition of the growth of T-47D cells (antiproliferative potency, in words) (T-47D cells): potencies similar to the natural product | inhibition of the growth of T-47D cells (antiproliferative potency, in words) (T-47D cells; listed as biotin-avrainvillamide conjugate): nearly equipotent to (+)-avrainvillamide | effect of deletion of cys275 on affinity-isolation of NPM1.3 [4]: greatly reduced | effect of deletion of cys21 or cys104 on affinity-isolation of NPM1.3 [5]: little effect

CN(C)c1cccc2c(S(=O)(=O)NCCCCCCCCCCOc3ccc4c(c3)[N+]([O-])=C3C4=C[C@@]45NC(=O)C6(CCCN6C4=O)CC5C3(C)C)cccc12 (some centres unmarked) [compound 4]
inhibition of the growth of T-47D cells (antiproliferative potency, in words) (T-47D cells): potencies similar to the natural product

C=C1[C@@H](C)[C@H]2[C@H](Cc3ccccc3)NC(=O)[C@]23OC(=O)/C=C/[C@H](O)CCC[C@@H](C)C/C=C/[C@H]3[C@@H]1O [Cytochalasine B, reference compound]
selectivity factor, melanoma cells relative to fibroblast control (LC25, 25 percent cell death, estimate of GI50) [6]: 0.2

COC1=C2C[C@@H](C)C[C@H](OC)[C@H](O)[C@@H](C)/C=C(\C)[C@H](OC(N)=O)[C@@H](OC)/C=C\C=C(/C)C(=O)NC(=CC1=O)C2=O [Geldanamycin, reference compound]
selectivity factor, melanoma cells relative to fibroblast control (LC25, 25 percent cell death, estimate of GI50) [6]: > 100

CC1(C)C=Cc2c(ccc3c2[N+]([O-])=C2C3=C[C@@]34NC(=O)[C@]5(CCCN5C3=O)C[C@H]4C2(C)C)O1 (single isomer, unassigned; ent-1) [ent-1, (−)-avrainvillamide]
binding of nucleophosmin to probe 5 in the presence of a 10-fold higher concentration of competitor (nucleophosmin [1]; 10 μM probe 5, 100 μM competitor, nuclear-enriched and whole-cell T-47D lysates): not diminished | concentration required for inhibition of probe 5-nucleophosmin binding (nucleophosmin [1]; T-47D lysate): 500 µM | fold higher concentration versus 1 required for inhibition of probe 5-nucleophosmin binding (nucleophosmin [1]; T-47D lysate): ~5 fold | fold less potent than (+)-1 as inhibitor of T-47D cell growth (T-47D cells): ~3 fold | blocking of the binding of probe 5 to peroxiredoxin 1 (PRX1) (peroxiredoxin 1 (PRX1)): capable of blocking | blocking of the binding of probe 5 to exportin-1 (XPO1) (exportin-1 (XPO1)): capable of blocking

COCCCCCCCCCCNS(=O)(=O)c1cccc2c(N(C)C)cccc12 [compound 6, reference compound]
inhibition of the growth of LNCaP cells (antiproliferative potency, in words) (LNCaP cells): inactive | inhibition of the growth of T-47D cells (antiproliferative potency, in words) (T-47D cells): inactive

CC1(C)C2=[N+]([O-])c3cc(C#Cc4ccccc4)ccc3C2=C[C@@]23NC(=O)C4(CCCN4C2=O)CC13 (some centres unmarked) [compound 10]
inhibition of binding of nucleophosmin to probe 5 by analogues (FIG. 4) (nucleophosmin [1]): least effectively inhibited

NC(=O)CI [iodoacetamide]
binding of nucleophosmin to probe 5 in the presence of a 1000-fold excess (nucleophosmin [7]): substantially reduced

CC1(C)C2=[N+]([O-])c3ccc(-c4ccccc4)cc3C2=C[C@@]23NC(=O)C4(CCCN4C2=O)CC13 (some centres unmarked) [compound 9]
inhibition of binding of nucleophosmin to probe 5 by analogues (FIG. 4) (nucleophosmin [1]): only partially inhibited | fold less potent than (+)-1 as inhibitor of T-47D cell growth (T-47D cells): 3 fold
